Measurements published in US9399032B2, “Methods and compositions for treating degenerative and ischemic disorders” (The General Hospital Corporation, priority 2009, dated 2016).
Where a name gives a salt, the structure may show the parent alone.

What was measured:
MCH58 fibroblasts [1] = experiment: Cellular oxygen consumption rate (OCR), extracellular acidification rate (ECAR) and lactic acid production; format: cell-based, human
Experimental: Cellular oxygen consumption and extracellular acidification assays were performed as follows. Briefly, MCH58 fibroblasts were seeded in XF24-well cell culture microplates (Seahorse Bioscience) at 30,000 cells/well in 10 mM glucose or 10 mM galactose media and incubated at 37° C./5% CO2 for ˜20 hours. Prior to the measurements, the growth medium was replaced with ˜925 μL of assay medium. The assay medium consisted of DMEM Base (Sigma Cat No D5030), 2 mM GlutaMax-1 (Gibco Cat No 350350-061), 1 mM Sodium Pyruvate (Sigma Cat No S8636), 10 mM Glucose (Sigma Cat No G8270) or Galactose (Sigma Cat No G5388), (1.85 g/L) Sodium Chloride and (15 mg/L) phenol red. The pH of the assay medium was adjusted to 7.4 with 1 N Sodium Hydroxide. The cells were incubated at 37° C. for 60 min in the assay medium prior to measurements.
(§1) The OCR and ECAR measurements on HeLa, 293, and STHdh^Q7/7 mouse striatal cells were carried out by growing them in XF24 plates at 40,000/well (HeLa) and STHdh^Q7/7 mouse striatal cells) and 60,000/well (293 cells) for ˜20 hours in their regular growth conditions. The assay medium was the same as above except that 25 mM glucose was used as the sugar source. The measurements were performed simultaneously every 7 minutes after a 2 minute mix and 2 minute wait period for MCH fibroblasts and every 6 minutes (with 2 minutes mix and 2 minute wait) for HeLa, 293, and STHdh^Q7/7 mouse striatal cells. Three baseline measurements were recorded prior to the addition of oligomycin (Biochemika 75352), Antimycin (Sigma A8674), roetnone (Sigma R8875), carbonyl cyanide 3-chlorophenylhydrazone (Sigma C2759) and meclizine hydrochloride (MSDiscovery 01500376). 50 mM stock solution of meclizine was made in DMSO, which was diluted to specified concentration in assay medium and its pH was adjusted to 7.4 by 1N Sodium hydroxide solution. The measurements were carried out at 33° C. for mouse striatal cells but for all other cell types measurement were done at 37° C.

[2] = tested on: human skin fibroblasts, mouse striatal cells, human embryonic kidney cells, and Hela cells; experiment: OCR and ECAR in other cell types; format: cell-based; conditions: 50 μM, 200 minutes
Experimental: as §1

[3] = tested on: primary cortical neurons isolated from mouse embryos; experiment: OCR in primary cortical neurons; format: cell-based; conditions: 5 and 10 μM
Experimental: Oxygen consumption rate (OCR) measurements following meclizine (5 and 10 μM) or antimycin (1 μM) addition at time 0 (min) in mouse primary cortical neurons obtained from day E14-15 embryos. Data are expressed as mean+/−SD (n≧3).
Meclizine was confirmed to shift a cell's relative reliance on OXPHOS versus glycolysis by whole cell bioenergetic kinetic assays. […] This was true in primary cardiomyocytes isolated from rat heart (FIG. 3K) and primary cortical neurons isolated from mouse embryos (FIG. 3L). Cardiomyocytes were exposed to the indicated concentration of meclizine for 20 min followed by oxygen measurement in a respiration chamber. Oxygen consumption rate (OCR) measurements were made following meclizine (5 and 10 μM) or antimycin (1 μM) addition at time 0 (min) in mouse primary cortical neurons obtained from day E14-15 embryos.

[4] = tested on: Mitochondria isolated from C57BL/6 mouse kidneys; experiment: Bioenergetics of isolated mitochondria; format: biochemical; conditions: acute addition
Experimental: Mootha et al., Am J Physiol 272:[…] (1997). State 2 respiration was initiated with the addition of 2.5 mM glutamate and 2.5 mM malate. State 3 respiration was initiated with the addition of 50 nmoles ADP. Uncoupled respiration was initiated with the addition of 5 μM CCCP (Sigma Cat No C2759). O2 consumption was monitored with a Fiber Optic Oxygen sensor probe from Ocean Optics, and NADH (endogenous, 370±7 nm excitation, 440±4 nm emission) and membrane potential (1.25 μM TMRM, 546±7 nm excitation, 590±4 nm emission) were measured with a Perkin-Elmer LS50B fluorimeter. A representative trace is shown from 6 independent experiments. 1M stock of phosphoethanolamine (Sigma P0503) was made in sterile water and pH was adjusted to 7.4 by 1N potassium hydroxide solution.

HIF1-α and HIF2-α = experiment: HIF stabilization (Western blot, HIF reporter); format: cell-based; conditions: HeLa cells, 50 μM, 6 h
Experimental: FIGS. 10A-10B present exemplary data showing the effect of meclizine on HIF-1α stabilization. 10A, HIF-1α and HIF-2α detection by western blot analysis of protein extract from HeLa cells after 6-h treatment with 0.1% DMSO, 100 μM deferoxamine (DFO) or […]. 10B, a bar graph showing HIF reporter activity measured in transiently transfected HeLa cells following 6 hours treatment with DMSO, 100 μM DFO or 50 μM Mec. NTC refers to non-transfected control. Data is representative of 2 independent experiments done in triplicate. (*P<0.05; two sided t-test).
To explore this hypothesis, activation of glycolysis via hypoxia inducible factor (HIF), a known transcriptional activator of glycolysis, was tested. HIF1-α and HIF2-α stabilization was assessed in HeLa cells by carrying out Western blot detection using anti-HIF1-α antibody (Cell Signaling Cat. No. 3716) and anti-HIF2-α antibody (Novus Biologicals). Protein was extracted from cells pre-treated with either 0.1% DMSO, 50 μM meclizine or 100 μM deferoxamine (Sigma Cat. No. D9533). Western detection of Glutaminase (GLS) was carried out on protein extracts from 293 cells using anti-GLS antibodies (gift from Dr. Javier Marquez, University of Malaga, Spain).

293 cells = experiment: Uncoupler (CCCP)-stimulated respiration in intact cells; format: cell-based; conditions: 25 μM, 6 hours pre-treatment
Experimental: 293 cells pre-treated with 25 μM meclizine for 6 hours fail to stimulate oxygen consumption to the same extent as DMSO treated controls after treatment with CCCP. Data expressed as mean±SD (n=3; *p value<0.01).
The upregulation of phosphoethanolamine was confirmed by orthogonal chromatography, as well as via ^31P-NMR. […] Previous studies have shown that phosphoethanolamine can be elevated in tumor cells, and that ethanolamine and PEA can directly silence mitochondrial OXPHOS. Zhu et al., J Lipid Res 49: 2197 (2008); and Modica-Napolitano et al., Biol Psychiatry 55:273 (2004). To test the effect of phosphoethanolamine (PEA) on mitochondrial respiration, mitochondria were incubated with varying concentration of phosphoethanolamine for ˜1 min prior to the addition of 2.5 mM glutamate and 2.5 mM malate followed by the addition of 1 μM CCCP. […] See FIGS. 16A and 16B, respectively.

Trypanosoma brucei = experiment: Effectiveness against Trypanosoma brucei; format: cell-based; conditions: kills Trypanosoma brucei; read-out: ED50 (the source's name)
MCH58 fibroblasts [5] = tested on: MCH58 fibroblasts
Experimental: Cell viability was assayed by calcein acetoxymethyl (AM) ester assay (Invitrogen C34852). MCH58 cells were seeded in 96-well plates at 5000 cells/well in DMEM high glucose medium. After ˜20 hours, cells were washed in PBS and the growth medium was replaced with 10 mM glucose or 10 mM galactose media containing different concentration of drugs or DMSO (0.1%). The cells were then grown for 72 hours followed by washing with PBS and addition of 5 μM calcein AM. After 30 minutes of incubation at 37° C., fluorescence was measured at an excitation and emission wavelength (ex/em) of 485 nm and 530 nm in a DTX880 multimode detector (Beckman Coulter).
Total cellular ATP level was measured using the CellTiter-Glo Luminescent Viability assay (Promega, G7571). Cells were grown in 96-well plates at 5000 cells/well for MCH58 and 20,000 cells/well for mouse striatal cells.

In the case of `Cc1cccc(CN2CCN(C(c3ccccc3)c3ccc(Cl)cc3)CC2)c1` (racemic) [Meclizine, meclizine hydrochloride], the “Km for switching energy metabolism versus published Km for blocking H1 receptors” value (MCH58 fibroblasts [1]) is reported as “about a hundred fold higher”, the lactic acid production (MCH58 fibroblasts [1]; requiring several hours to develop) is reported as “increased lactic acid production in a dose-dependent manner” and the oxygen consumption rates (MCH58 fibroblasts [1]; whole cell bioenergetic kinetic assays) is reported as “reduced oxygen consumption rates”. The “oxygen consumption and extracellular acidification rate in other cell types” value [2] was “reductions in oxygen consumption and concomitant increase in extracellular acidification rate”, the “respiration (OCR) in primary cortical neurons” value [3] was “inhibits respiration” and the “mitochondrial oxygen consumption in isolated mitochondria” value [4] was “had no effect”. For the same molecule, the HIF stabilization (HIF1-α and HIF2-α) was “No HIF stabilization”, the “uncoupler-stimulated respiration in intact cells” value (293 cells) was “blunts uncoupler-stimulated respiration” and the EC50 (Trypanosoma brucei) was 1410 ± 120 nM. For the same molecule, the “cellular ATP levels, galactose-rich relative to glucose-rich media” value (MCH58 fibroblasts [5]; MCH58) was “more sensitive”, the “LD50 in galactose-rich media as compared to glucose-rich media” value (MCH58 fibroblasts [5]; human) was “at least two-fold difference” and the growth of fibroblasts (MCH58 fibroblasts [5]; over a three-day period) was “retard the growth of fibroblasts in a dose dependent manner”.
